Assay [1] deals with IMR90. The assay can be described thus: cells. Conditions: Homo sapiens, IMR-90, 72 h, read-out: MeB Cell Line IC50.
Assay [2] deals with prostate (PC3) tumor cell line. Nature of the assay: Methylene Blue Growth Inhibition Assay, PC3. Conditions: Homo sapiens, 72 h; PC3, 3 days; read-out: MeB Cell Line IC50. Type of assay: cell-based. An excerpt: (§1) II. Methylene Blue Growth Inhibition Assay
(§2) Medium was removed by aspiration.

In assay [3] the test system is Normal Human foreskin fibroblasts (HFF). Nature of the assay: Methylene Blue Growth Inhibition Assay, HFF. Type of assay: cell-based. Conditions: 72 h, 3 days, read-out: MeB Cell Line IC50.
Text: as §1, §2

The test system of assay [4] is COLO205. Nature of the assay: cells. The settings on record: Homo sapiens, COLO 205, 72 h, read-out: MeB Cell Line IC50.
Assay [5] concerns colon (RKO) tumor cell line. The assay can be described thus: Methylene Blue Growth Inhibition Assay, RKO. In kind it is cell-based. Conditions: Homo sapiens, 72 h, 3 days, read-out: MeB Cell Line IC50.
Text: as §1, §2

The test system of assay [6] is breast tumor (MCF7) cell line. Nature of the assay: Methylene Blue Growth Inhibition Assay, MCF7. Type of assay: cell-based. The settings on record: Homo sapiens, 72 h; MCF7, 3 days; read-out: MeB Cell Line IC50.
Text: as §1, §2

The subject of assay [7] is colon (HCT116) tumor cell line. Nature of the assay: Methylene Blue Growth Inhibition Assay, HCT116. The settings on record: Homo sapiens, HCT-116, 72 h; HCT116, 3 days; read-out: MeB Cell Line IC50. In kind it is cell-based.
Text: as §1, §2

Assay [8] relates to lung (H460) tumor cell line. The assay can be described thus: Methylene Blue Growth Inhibition Assay, H460. Conditions: Homo sapiens, NCI-H460, 72 h; H460, 3 days; read-out: MeB Cell Line IC50. Type of assay: cell-based.
Text: as §1, §2

Assay [9] has as its system SAOS2. The assay can be described thus: cells. The settings on record: Homo sapiens, SAOS-2, 72 h, read-out: MeB Cell Line IC50.
Assay [10] deals with MDA435. Nature of the assay: cells. The settings on record: MDA435, 72 h, read-out: MeB Cell Line IC50.
For assay [11], the target named is T1, truncated human PLK1 (kinase domain) (Homo sapiens, UniProt P53350).
T1 construct: made in house; host or cells: baculovirus-infected T. ni insect cells
T1 sequence (P53350 21-346): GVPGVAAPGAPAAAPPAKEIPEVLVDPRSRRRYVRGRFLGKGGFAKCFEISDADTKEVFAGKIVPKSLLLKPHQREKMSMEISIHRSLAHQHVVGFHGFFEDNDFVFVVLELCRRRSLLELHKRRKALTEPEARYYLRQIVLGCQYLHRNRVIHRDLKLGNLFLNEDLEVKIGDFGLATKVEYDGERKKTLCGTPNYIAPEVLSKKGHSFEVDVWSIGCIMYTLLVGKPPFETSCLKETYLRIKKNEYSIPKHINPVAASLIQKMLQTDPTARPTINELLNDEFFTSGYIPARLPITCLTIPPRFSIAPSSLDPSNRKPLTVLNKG
The assay can be described thus: Assay for Inhibition of PLK1 (33P SPA enzyme activity). In kind it is biochemical. Conditions: 1 μM ATP, 2 nM enzyme; read-out: Ave pIC50 PLK Enzyme Inhibition (converted). Put shortly:
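Enzyme is the 6×His-tagged PLK1 kinase domain, purified by Ni-chelate and gel filtration. Compounds added in DMSO, then enzyme; reaction stopped with EDTA/streptavidin SPA bead mix containing 60 μM ATP, read by 33P scintillation proximity.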

`COc1cc(Nc2ncc3c(C)nc(-c4ccccc4)n3n2)cc(OC)c1OC` [Example 1, 5-Methyl-7-phenyl-N-(3,4,5-trimethoxyphenyl)imidazo[5,1-f][1,2,4]triazin-2-amine]: the IC50 fell in the range of 10 to 30 µM in assay [1]; 10 to 30 µM in [2]; 10 to 30 µM in [3]; 1 to 10 µM in [4]; 1 to 10 µM in [5]; 1 to 10 µM in assay [6]. In addition, the IC50 in assay [7], in [8], in assay [9] and in assay [10] was 1 to 10 µM throughout.
On to `COc1cc(Nc2ncc3c(C)nc(-c4ccc(C(F)(F)F)cc4)n3n2)cc(OC)c1OC` [Example 24, 5-Methyl-7-[4-(trifluoromethyl)phenyl]-N-(3,4,5-trimethoxy-phenyl)imidazo[5,1-f][1,2,4]triazin-2-amine], for which the IC50 is 10 to 30 µM in assay [2]; 10 to 30 µM in [3]; 10 to 30 µM in assay [5]; 0.1 to 10 µM in assay [11]; 10 to 30 µM in assay [6]; 10 to 30 µM in assay [7]. Moreover, the IC50 in assay [8] was in the range of 10 to 30 µM.
On to `Cc1nc(-c2cccc(C(F)(F)F)c2)n2nc(Nc3cccc(S(N)(=O)=O)c3)ncc12` [Example 41, 3-({5-Methyl-7-[3-(trifluoromethyl)phenyl]imidazo[5,1-f][1,2,4]triazin-2-yl}amino)benzenesulfonamide], for which the IC50 in assay [2] is 10 to 30 µM; in assay [3], 10 to 30 µM; in [5], 1 to 10 µM; in assay [11], 0.1 to 10 µM; in assay [6], 1 to 10 µM; in [7] it was 1 to 10 µM. In addition, the IC50 in assay [8] lay in the range of 1 to 10 µM.
Consider `COc1ccc(NC(C)=O)cc1Nc1ncc2c(C)nc(-c3cccc(C(F)(F)F)c3)n2n1` [Example 43, N-[4-Methoxy-3-({5-methyl-7-[3-(trifluoromethyl)phenyl]imidazo-[5,1-f][1,2,4]triazin-2-yl}amino)phenyl]acetamide], for which the IC50 in assay [2] was 10 to 30 µM; in [3] it was 10 to 30 µM; in [5], 1 to 10 µM; in assay [11], under 0.1 µM; in assay [6] it was 1 to 10 µM; in assay [7] it was 1 to 10 µM. In addition, in [8], the IC50 lay within 1 to 10 µM.
For the molecule `Cc1nc(-c2cccc(C(F)(F)F)c2)n2nc(Nc3cccc(CCO)c3)ncc12` [Example 44, 2-[3-({5-Methyl-7-[3-(trifluoromethyl)phenyl]imidazo[5,1-f][1,2,4]triazin-2-yl}amino)phenyl]ethanol], the IC50 in assay [2] is 10 to 30 µM; in assay [3] it was 10 to 30 µM; in assay [5] it was 1 to 10 µM; in [11] it was under 0.1 µM; in [6] it was 10 to 30 µM; in [7], 1 to 10 µM. For the same molecule, the IC50 in assay [8] fell in the range of 1 to 10 µM.
Take `CC(=O)Nc1ccc(Nc2ncc3c(C)nc(-c4cccc(C(F)(F)F)c4)n3n2)cc1` [Example 46, N-[4-({5-Methyl-7-[3-(trifluoromethyl)phenyl]imidazo[5,1-f][1,2,4]triazin-2-yl}amino)phenyl]acetamide]: the IC50 in assay [2] was 10 to 30 µM; in assay [3], 10 to 30 µM; in assay [5], 1 to 10 µM; in assay [11] it was under 0.1 µM; in assay [6], 1 to 10 µM; in assay [7] it was 1 to 10 µM. Also, in assay [8], the IC50 is 10 to 30 µM.
On to `CC(=O)Nc1cccc(Nc2ncc3c(C)nc(-c4cccc(C(F)(F)F)c4)n3n2)c1` [Example 47, N-[3-({5-Methyl-7-[3-(trifluoromethyl)phenyl]imidazo[5,1-f][1,2,4]triazin-2-yl}amino)phenyl]acetamide], for which the IC50 in [2] is 10 to 30 µM; in assay [3], 10 to 30 µM; in assay [5], 10 to 30 µM; in assay [11] it was under 0.1 µM; in assay [6], 10 to 30 µM; in [7], 1 to 10 µM. Besides, the IC50 in assay [8] lay in the range of 10 to 30 µM.
With `Cc1nc(-c2cccc(C(F)(F)F)c2)n2nc(Nc3cccc(CNC(=O)OC(C)(C)C)c3)ncc12` [Example 48, tert-Butyl 3-({5-methyl-7-[3-(trifluoromethyl)phenyl]imidazo[5,1-f][1,2,4]triazin-2-yl}amino)benzylcarbamate], the IC50 in [2] is 10 to 30 µM; in assay [3], 10 to 30 µM; in [5], 1 to 10 µM; in assay [11], 0.1 to 10 µM; in [6] it was 10 to 30 µM; in assay [7], 10 to 30 µM. Further, in assay [8], the IC50 is 10 to 30 µM.
As for `Cc1nc(-c2ccccc2)n2nc(Nc3cccc(CCS(=O)(=O)O)c3)ncc12` [Example 57, 2-{3-[(5-Methyl-7-phenylimidazo[5,1-f][1,2,4]triazin-2-yl)amino]phenyl}ethanesulfonic acid], the IC50 was 10 to 30 µM in assay [2]; 10 to 30 µM in assay [3]; 10 to 30 µM in assay [5]; under 0.1 µM in [11]; 10 to 30 µM in [6]; 10 to 30 µM in [7]. In addition, the IC50 in assay [8] was 10 to 30 µM.

Source of the values: US7462614B2, “Imidazotriazine compounds” (Smithkline Beecham Corporation, priority 2003, dated 2008).
